We go through six compounds from PMC7926793, “Synthesis and Biological Evaluation of 1-(Diarylmethyl)-1H-1,2,4-triazoles and 1-(Diarylmethyl)-1H-imidazoles as a Novel Class of Anti-Mitotic Agent for Activity in Breast Cancer” (Pharmaceuticals, 2021).

Holding throughout (type): cell-based, human
One assay deals with K-562. The assay is described as follows: NCI 60 cell line screen (Leukemia). The conditions noted are these: for GI50: Homo sapiens, K562, K-562, NCI 5 dose assay; for Growth percentage: K-562, single dose 10 µM.
The subject of a further assay is EKVX. The assay is described as follows: NCI 60 cell line screen (Non-Small Cell Lung Cancer). The conditions noted are these: for GI50: Homo sapiens, NCI 5 dose assay; for Growth percentage: single dose 10 µM.
A further assay has as its system NCI-H226. The description is as above. The conditions noted are these: for GI50: Homo sapiens, NCI-H226, NCI 5 dose assay; for Growth percentage: NCI-H226, single dose 10 µM.
In the next assay the test system is NCI-H332M. Described as above. As to conditions: for GI50: Homo sapiens, NCI 5 dose assay; for Growth percentage: single dose 10 µM.
The test system of the next assay is HCT-15. As to the kind of experiment: NCI 60 cell line screen (Colon Cancer). The conditions noted are these: for Growth percentage: HCT-15, single dose 10 µM; for GI50: Homo sapiens, HCT-15, NCI 5 dose assay.
A further assay relates to HT29. The assay is described as follows: NCI 60 cell line screen (Colon Cancer). As to conditions: for Growth percentage: HT29, single dose 10 µM; for GI50: Homo sapiens, HT-29, HT29, NCI 5 dose assay.
The subject of another assay is SF295. The assay is described as follows: NCI 60 cell line screen (CNS Cancer). As to conditions: for GI50: Homo sapiens, SF-295, SF295, NCI 5 dose assay; for Growth percentage: SF295, single dose 10 µM.
A further assay relates to SF539. As to the kind of experiment: NCI 60 cell line screen (CNS Cancer). As to conditions: for GI50: Homo sapiens, SF-539, SF539, NCI 5 dose assay; for Growth percentage: SF539, single dose 10 µM.
In the next assay the test system is DU-145. As to the kind of experiment: NCI 60 cell line screen (Prostate cancer). As to conditions: for Growth percentage: DU-145, single dose 10 µM; for GI50: Homo sapiens, DU-145, NCI 5 dose assay.
The subject of a further assay is M14. The assay is described as follows: NCI 60 cell line screen (Melanoma). As to conditions: for GI50: Homo sapiens, M14, NCI 5 dose assay; for Growth percentage: M14, single dose 10 µM.
The subject of the next assay is SK-MEL-2. The assay is described as follows: NCI 60 cell line screen (Melanoma). The conditions noted are these: for GI50: Homo sapiens, SK-MEL-2, NCI 5 dose assay; for Growth percentage: SK-MEL-2, single dose 10 µM.
A further assay has as its system A498. As to the kind of experiment: NCI 60 cell line screen (Renal Cancer). The conditions noted are these: for Growth percentage: A498, single dose 10 µM; for GI50: Homo sapiens, A498, NCI 5 dose assay.
In another assay the test system is SN12C. As to the kind of experiment: NCI 60 cell line screen (Renal Cancer). The conditions noted are these: for GI50: Homo sapiens, NCI 5 dose assay; for Growth percentage: single dose 10 µM.
A further assay has as its system UO-31. As to the kind of experiment: NCI 60 cell line screen (Renal Cancer). As to conditions: for GI50: Homo sapiens, UO-31, NCI 5 dose assay; for Growth percentage: UO-31, single dose 10 µM.
The next assay relates to MDA-MB-231/ATCC. The assay is described as follows: NCI 60 cell line screen (Breast Cancer). The conditions noted are these: for GI50: Homo sapiens, NCI 5 dose assay; for Growth percentage: single dose 10 µM.
The next assay has as its system MDA-MB-468. As to the kind of experiment: NCI 60 cell line screen (Breast Cancer). As to conditions: for GI50: Homo sapiens, MDA-MB-468, NCI 5 dose assay; for Growth percentage: MDA-MB-468, single dose 10 µM.
The subject of another assay is Bcl-2. As to the kind of experiment: Western blot in MCF-7 cells. As to conditions: MCF-7, 1 μM. How it is done:
(§1) MCF-7 cells were seeded at a density of 1 × 10^5 cells/flask (10 mL) in T25 flasks. After 48 h, whole cell lysates were prepared from untreated cells or cells treated with vehicle control (EtOH, 0.1% v/v) or selected compound 21l or 24 (1 μM). MCF-7 cells were harvested in Radioimmunoprecipitation assay buffer (RIPA) buffer supplemented with protease inhibitors (Roche Diagnostics), phosphatase inhibitor cocktail 2 (Sigma-Aldrich), and phosphatase inhibitor cocktail 3 (Sigma-Aldrich). Equal quantities of protein (as determined by a bicinchoninic acid assay (BCA assay) were resolved by SDS-PAGE (12%) followed by transfer to polyvinylidene fluoride PVDF membranes. Membranes were blocked in 5% bovine serum albumin/Tris-buffered saline with 0.1% Tween®20 Detergent (TBST) for 1 h. Membranes were incubated in the relevant primary antibodies at 4 °C overnight, washed with TBST, and incubated in horseradish peroxidase-conjugated secondary antibody for 1 h at rt and washed again. Western blot analysis was performed as described above using antibodies directed against Mcl-1 (1:1000) (Millipore), Bcl-2 [1:500] (Millipore), and PARP followed by incubation with a horseradish peroxidase-conjugated anti-mouse antibody (1:2000) (Promega, Madison, WI, USA). All blots were probed with anti-glyceraldehyde 3-phosphate dehydrogenase (GAPDH) antibody (1:5000) (Millipore) to confirm equal loading. Proteins were detected using enhanced chemiluminescent Western blot detection (Clarity Western ECL substrate) (Bio Rad) on the ChemiDoc MP System (Bio Rad). Experiments were performed on three independent occasions.
Background: A western blot detects proteins with antibodies after separation by electrophoresis.

The next assay concerns Mcl-1. The assay is described as follows: Western blot in MCF-7 cells. As to conditions: MCF-7, 1 μM. How it is done: as §1
The test system of the next assay is PARP. The assay is described as follows: Western blot in MCF-7 cells. As to conditions: MCF-7, 1 μM, vs vehicle. Here is the method: as §1

Usually GI50 stands for the concentration that inhibits growth by half. Low values mean greater sensitivity of the cells, high ones lower sensitivity of the cells.

Values joined by “and” are separate entries in the source; they are usually repeats but may differ in a detail not shown here. Equal values may be shown once.

With `COc1ccc(C(c2cc(OC)c(OC)c(OC)c2)n2cncn2)cc1O` (stereo not shown) [19e, 5-((1H-1,2,4-Triazol-1-yl)(3,4,5-Trimethoxyphenyl)methyl)-2-Methoxyphenol], the GI50 with K-562 was 427 nM; in the assay with EKVX, 2240 nM; in the assay with NCI-H226, 1430 nM; with NCI-H332M, 696 nM; in the assay on HCT-15, 438 nM; in the assay with HT29 it was 330 nM. The GI50 came out at 325 nM in the assay with SF295; 300 nM in the assay with SF539; 530 nM in the assay on DU-145; 374 nM with M14; 361 nM with SK-MEL-2; 324 nM in the assay on A498. The GI50 in the assay with SN12C was 853 nM; with UO-31, 903 nM; in the assay with MDA-MB-231/ATCC, 1500 nM; with MDA-MB-468 it was 371 nM. The Growth percentage with K-562 is on record as 8.34%; in the assay on EKVX, 39.79%; in the assay with NCI-H226, 73.39%; in the assay with NCI-H332M, 51.45%; in the assay on HCT-15, 10.04%; with HT29 it was 5.30%. In addition, the Growth percentage was 2.56% with SF295; 9.34% in the assay with SF539; 19.64% with DU-145; -1.61% with M14; 55.94% in the assay on SK-MEL-2; 9.66% with A498. Moreover, the Growth percentage stood at 39.32% in the assay on SN12C, 57.96% in the assay on UO-31, 43.15% in the assay on MDA-MB-231/ATCC and 7.88% in the assay with MDA-MB-468.

Turning to `COc1ccc(C(c2cc(OC)c(OC)c(OC)c2)n2ccnc2)cc1O` (stereo not shown) [21l, 5-((1H-Imidazol-1-yl)(3,4,5-Trimethoxyphenyl)Methyl)-2-Methoxyphenol], the “expression level of Bcl-2” value in the assay on Bcl-2 is given as “no change”. Moreover, the “expression level of Mcl-1” value in the assay on Mcl-1 was “no change”. In addition, the “expression of full-length PARP (116 kDa)” value in the assay on PARP is “significant reduction”. In addition, the GI50 in the assay with K-562 was 225 nM; in the assay on EKVX it was 702 nM; in the assay on NCI-H226, 640 nM; in the assay with NCI-H332M it was 789 nM; in the assay with HCT-15, 264 nM; in the assay with HT29, 312 nM. Besides, the GI50 in the assay on SF295 amounted to 307 nM; with SF539 it was 217 nM; in the assay with DU-145, 407 nM; in the assay on M14 it was 180 nM; with SK-MEL-2, 324 nM; in the assay on A498, 304 nM. For the same compound, the GI50 in the assay on SN12C stood at 910 nM; in the assay with UO-31, 883 nM; with MDA-MB-231/ATCC, 664 nM; in the assay on MDA-MB-468, 316 nM. Besides, the Growth percentage with K-562 is given as 8.00%; with EKVX, 30.23%; in the assay on NCI-H226, 68.70%; in the assay on NCI-H332M, 48.23%; with HCT-15, 7.70%; in the assay on HT29, 5.94%. In addition, the Growth percentage with SF295 is listed as -3.02%; in the assay with SF539 it was 9.52%; in the assay on DU-145, 12.91%; in the assay on M14, 0.91%; with SK-MEL-2 it was 43.54%; with A498 it was 8.04%. Besides, the Growth percentage in the assay with SN12C was found to be 37.55%; in the assay on UO-31, 61.96%; in the assay with MDA-MB-231/ATCC, 34.75%; with MDA-MB-468 it was 15.64%.

In the case of `COc1ccc(C(c2cc(OC)c(OC)c(OC)c2)N2CCCC2)cc1` (stereo not shown) [25g], the Growth percentage in the assay on K-562 came to 25.23%; with EKVX it was 87.78%; in the assay with NCI-H226 it was 87.61%; in the assay with NCI-H332M, 87.51%; in the assay on HCT-15 it was 52.67%; in the assay with HT29, 40.59%. Besides, the Growth percentage in the assay with SF295 worked out at 69.71%; in the assay with SF539, 95.69%; with DU-145, 103.12%; with M14, 60.08%; with SK-MEL-2 it was 55.67%; in the assay on A498, 31.23%. Besides, the Growth percentage came to 108.47% in the assay with SN12C, 75.13% with UO-31, 80.82% with MDA-MB-231/ATCC and 54.75% in the assay with MDA-MB-468.

With `COc1ccc(C(c2cc(OC)c(OC)c(OC)c2)N2CCCCC2)cc1` (stereo not shown) [26b, 1-((4-Methoxyphenyl)(3,4,5-Trimethoxyphenyl)Methyl)Piperidine], the Growth percentage in the assay on K-562 was found to be 18.04%; with EKVX, 59.13%; in the assay on NCI-H226 it was 55.46%; in the assay with NCI-H332M, 47.90%; with HCT-15, 20.63%; in the assay with HT29, 7.93%. In addition, the Growth percentage in the assay on SF295 is on record as 18.75%; in the assay with SF539, 27.71%; in the assay on DU-145, 64.18%; in the assay on M14, 23.27%; in the assay on SK-MEL-2 it was 22.02%; in the assay on A498 it was 7.32%. For the same compound, the Growth percentage with SN12C was 54.32%; in the assay with UO-31, 48.76%; in the assay on MDA-MB-231/ATCC it was 53.09%; in the assay on MDA-MB-468, 9.32% and 9.3%.

`COc1ccc(C(c2cc(OC)c(OC)c(OC)c2)N2CCN(Cc3ccccc3)CC2)cc1` (stereo not shown) [27d]: the Growth percentage in the assay on K-562 is 26.38%; in the assay on EKVX it was 82.69%; in the assay with NCI-H226 it was 85.40%; in the assay with NCI-H332M it was 65.07%; in the assay on HCT-15, 47.63%; with HT29 it was 28.31%. The Growth percentage in the assay with SF295 is listed as 68.71%; in the assay on SF539 it was 81.24%; in the assay on DU-145, 102.00%; in the assay with M14 it was 52.83%; in the assay with SK-MEL-2, 27.38%; in the assay on A498, 51.90%. The Growth percentage is given as 88.36% in the assay on SN12C, 68.80% in the assay with UO-31, 71.05% with MDA-MB-231/ATCC and 52.99% with MDA-MB-468.

On to `COc1ccc(C(c2cc(OC)c(OC)c(OC)c2)n2nccn2)cc1O` (stereo not shown) [compound 24], for which the “expression level of Bcl-2” value in the assay with Bcl-2 is given as “no change”. Also, in the assay on Mcl-1, the “expression level of Mcl-1” value is given as “no change”. Besides, the “expression of full-length PARP (116 kDa)” value with PARP is on record as “significant reduction”.
